# From article PMC12680756, “Reflectometric-based sensor arrays for the screening of kinase-inhibitor interactions and kinetic determination” (Analytical and Bioanalytical Chemistry, 2025)
# What was measured:
# PKA in the protein mix = test: 1-lambda reflectometry inhibitor screening on spotted sensor array, protein mix; assay type: binding, bovine; conditions: for order of binding affinity by color change of the spots (naked eye): protein mix 50 µg/mL, image after association, Fig. 5a; for increase of the average relative signal: protein mix, sensograms Fig. 5c, immobilized inhibitor spot
# Experimental: (§1) • Manual spotting: the inhibitor dissolved in DMSO (1 mg/mL) was dropped to the measurement region on the transducer by pipetting. The immobilization process was as specified above. • Automatic spotting: the inhibitor dissolved in DMSO (1 mg/mL) was dropped to the measurement region on the transducer via the ceramic pin of the spotter. The droplets were dried under ambient conditions, and the process was repeated twice. After drying the last droplet, the transducer was prepared for measurements or stored at 4°C.
# (§2) Screening was performed with 1-lambda reflectometry and transducers on which different inhibitors were spotted in the measurement area. The measurement protocols were the same as for the single assays.
# One region per row was set as the reference ROI void of inhibitor.
# FAK [1] = molecular target: T1, FAK (Homo sapiens, UniProt Q05397); test: 1-lambda reflectometry inhibitor screening on spotted sensor array, FAK; assay type: binding; conditions: sensograms Fig. 5c; for order regarding the strength of the association: FAK as kinase sample
# T1 sequence (Q05397 410-689, species assumed): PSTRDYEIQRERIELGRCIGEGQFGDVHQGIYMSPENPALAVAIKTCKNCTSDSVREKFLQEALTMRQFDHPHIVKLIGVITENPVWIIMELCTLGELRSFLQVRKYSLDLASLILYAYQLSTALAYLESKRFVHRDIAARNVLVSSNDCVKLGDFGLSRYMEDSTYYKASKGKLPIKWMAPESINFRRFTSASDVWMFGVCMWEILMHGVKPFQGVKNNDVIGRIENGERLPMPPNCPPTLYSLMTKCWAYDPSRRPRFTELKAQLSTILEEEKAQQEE
# Experimental: as §1, §2
# FAK [2] = molecular target: T1, FAK; test: Competitive MST assay, labeled STP-FAK complex titrated with another inhibitor; assay type: binding; conditions: labeled STP (40 µM) in complex with FAK (40 nM)
# Experimental: Microscale thermophoresis was performed with the instrument Monolith NT.115, capillaries and MO.Control Software from Nanotemper Technologies, Munich, Germany. For each experiment, 16 capillaries were filled with a sample solution. […] The fluorescence of a specific area of each capillary was measured prior and during the thermophoresis experiment. For a better comparability, the fluorescence intensity obtained during the measurement was normalized to the fluorescence in each capillary recorded prior to the start of the experiment.
# [3] = molecular target: protein mix containing cAMP-dependent protein kinase (PKA) (Bos taurus, UniProt P00517); test: 1-lambda reflectometry single assays, protein mix flushed over immobilized inhibitor, kinetic evaluation; conditions: read-out: dissociation rate constant kd
Structure (SMILES),order of binding affinity by color change of the spots (naked eye) (PKA in the protein mix),increase of the average relative signal (PKA in the protein mix) [%],order regarding the strength of the association (FAK [1]),"increase of the relative signal (FAK [1]; FAK, immobilized inhibitor spot) [%]",shape of dose-response curve in competitive MST (FAK [2]),koff [3] [s⁻¹]
Cc1ccc(NC(=O)c2ccc(CN3CCN(C)CC3)cc2)cc1Nc1nccc(-c2cccnc2)n1 [imatinib],imatinib > fragment2 > fragment1 > STP,0.84,STP > imatinib > fasudil > fragment2 > fragment1,0.13,–,–
"Cl.Cn1cc(C2=C(c3c4n(c5ccccc35)CCC(CN)C4)C(=O)NC2=O)c2ccccc21 (centres unmarked) [BisX, Bisindolylmaleimide X]",–,–,–,–,the slope was inversed compared to the one of the direct assays,–
COc1ccc(-c2cc(N)[nH]n2)cc1Cl [fragment1],imatinib > fragment2 > fragment1 > STP,–,STP > imatinib > fasudil > fragment2 > fragment1,–,–,0.007
Nc1ncnc(Nc2ccc(F)cc2)n1 [fragment2],imatinib > fragment2 > fragment1 > STP,–,STP > imatinib > fasudil > fragment2 > fragment1,–,–,–
O=S(=O)(c1cccc2cnccc12)N1CCCNCC1 [fasudil],strongest color change,1.7,STP > imatinib > fasudil > fragment2 > fragment1,–,–,–
"CN[C@@H]1C[C@H]2O[C@@](C)([C@@H]1OC)n1c3ccccc3c3c4c(c5c6ccccc6n2c5c31)C(=O)NC4 [STP, Staurosporine]",imatinib > fragment2 > fragment1 > STP,–,–,–,–,–
